Assay [1] has as its target T1, human ANO1(abc) (Homo sapiens, UniProt Q5XXA6, DEL476-501).
T1 construct: expressed in transfected cells
T1 sequence (Q5XXA6 with tags, fused parts or gaps isoform Q5XXA6-5 DEL539-564): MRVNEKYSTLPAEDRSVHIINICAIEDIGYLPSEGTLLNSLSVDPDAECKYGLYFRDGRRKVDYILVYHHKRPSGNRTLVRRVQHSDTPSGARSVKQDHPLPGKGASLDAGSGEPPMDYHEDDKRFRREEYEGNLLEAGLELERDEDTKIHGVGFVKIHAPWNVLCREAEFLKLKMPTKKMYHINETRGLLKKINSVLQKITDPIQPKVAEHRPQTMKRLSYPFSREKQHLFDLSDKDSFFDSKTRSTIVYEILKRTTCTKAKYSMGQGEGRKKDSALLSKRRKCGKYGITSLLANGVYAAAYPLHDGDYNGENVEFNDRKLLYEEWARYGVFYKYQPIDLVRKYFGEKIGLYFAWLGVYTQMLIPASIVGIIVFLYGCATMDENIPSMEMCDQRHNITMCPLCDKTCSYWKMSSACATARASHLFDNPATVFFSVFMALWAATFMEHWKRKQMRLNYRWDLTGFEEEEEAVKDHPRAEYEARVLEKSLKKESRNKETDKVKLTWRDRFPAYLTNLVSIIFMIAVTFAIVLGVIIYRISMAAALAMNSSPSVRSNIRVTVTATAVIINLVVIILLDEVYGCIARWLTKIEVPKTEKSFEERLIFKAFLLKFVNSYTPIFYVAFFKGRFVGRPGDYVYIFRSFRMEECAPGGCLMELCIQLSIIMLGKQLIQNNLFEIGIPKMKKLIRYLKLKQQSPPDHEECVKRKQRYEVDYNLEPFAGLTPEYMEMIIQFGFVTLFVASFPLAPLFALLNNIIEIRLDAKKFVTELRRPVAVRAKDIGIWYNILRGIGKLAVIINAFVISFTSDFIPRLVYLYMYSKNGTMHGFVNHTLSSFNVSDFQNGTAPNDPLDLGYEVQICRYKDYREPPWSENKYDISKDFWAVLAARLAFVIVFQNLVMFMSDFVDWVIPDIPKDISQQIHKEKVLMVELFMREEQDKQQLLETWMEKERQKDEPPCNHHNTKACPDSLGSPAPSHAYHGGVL
Briefly: YFP fluorescence plate reader assay of iodide influx in ANO1 expressing FRT cells. The note with it: read-out: IC50 of ANO1 inhibition. Format: cell-based. How it is done:
Cell based screening was performed as described in previous study. Briefly, ANO1 and YFP expressing FRT cells were plated in 96-well black-walled microplates (Corning Inc., Corning, NY) at a density of 20,000 cells per well, and then cultured for 2 days. Assays were done using FLUOstar Omega microplate reader (BMG Labtech, Ortenberg, Germany) and MARS Data Analysis Software (BMG Labtech). Each well of 96-well plate was washed 3 times in PBS (200 μL/wash), leaving 100 μL PBS. Test compounds (1 μL) were added to each well at 25 μM final concentration. After 10 min, 96-well plates were transferred to a plate reader for fluorescence assay. Each well was assayed individually for TMEM16A-mediated I^- influx by recording fluorescence continuously (400 ms per point) for 1 s (baseline), then 100 μL of 140 mM I^- solution containing 200 μM ATP was added at 1 s and then YFP fluorescence was recorded for 5 s. Initial iodide influx rate was determined from the initial slope of fluorescence decrease, by nonlinear regression, following infusion of iodide with ATP.
ANO1 chloride channel activity was measured using Fischer rat thyroid (FRT) cells stably expressing human ANO1(abc) and the genetically encoded iodide-sensing fluorescent protein, YFP-F46L/H148Q/I152L. This cell model was used because of our prior success in ANO1 chloride channel drug discovery. For the screening to identify ANO1 inhibitors, the FRT cells were pre-incubated with test compounds for 10 minutes prior to addition of an iodide and ATP, an agonist of P2 purinergic receptor which induces an increase in intracellular calcium concentration and activation of ANO1, containing solution.

Assay [2] deals with VRAC. Briefly: VRAC activity by YFP quenching in LN215 cells. It counts as cell-based, human. The note with it: 10 μM. How it is done: LN215 cells, a human glioma cell line, were stably transfected with YFP-F46L/H148Q/I152L, a halide sensor YFP. After the cells were incubated on 96well black plates (Corning Inc., Corning, NY) for 48 hours, each well of the 96-well plate was washed 3 times in PBS (200 μL/wash), and the wells were filled with 50 μl/well isotonic solution (in mM): 140 NaCl, 5 KCl, 20 HEPES (310 mOsm/kg; pH 7.4 with NaOH). In each well, VRAC expressed on the cells were stimulated with addition of 50 μl of hypotonic solutions (in mM): 5 KCl, 20 HEPES, 90 mannitol (120 mOsm/kg). Test compounds (1 μL) were added to each well in a dose dependent manner. After 5 min, 96-well plates were transferred to a plate reader for fluorescence assay. Each well was assayed individually for VRAC-mediated I^- influx by recording fluorescence continuously (400 ms per point) for 7.6 s. YFP fluorescence was recorded 0.4 s for baseline, then 100 μL of 140 mM I^- solution was added at 0.4 s to see the change in fluorescence. Initial iodide influx rate was determined from the initial slope of fluorescence decrease, by nonlinear regression, following infusion of iodide.

Assay [3] addresses T2, mouse ANO2 (Mus musculus, UniProt Q8CFW1).
T2 sequence (Q8CFW1 1-1002): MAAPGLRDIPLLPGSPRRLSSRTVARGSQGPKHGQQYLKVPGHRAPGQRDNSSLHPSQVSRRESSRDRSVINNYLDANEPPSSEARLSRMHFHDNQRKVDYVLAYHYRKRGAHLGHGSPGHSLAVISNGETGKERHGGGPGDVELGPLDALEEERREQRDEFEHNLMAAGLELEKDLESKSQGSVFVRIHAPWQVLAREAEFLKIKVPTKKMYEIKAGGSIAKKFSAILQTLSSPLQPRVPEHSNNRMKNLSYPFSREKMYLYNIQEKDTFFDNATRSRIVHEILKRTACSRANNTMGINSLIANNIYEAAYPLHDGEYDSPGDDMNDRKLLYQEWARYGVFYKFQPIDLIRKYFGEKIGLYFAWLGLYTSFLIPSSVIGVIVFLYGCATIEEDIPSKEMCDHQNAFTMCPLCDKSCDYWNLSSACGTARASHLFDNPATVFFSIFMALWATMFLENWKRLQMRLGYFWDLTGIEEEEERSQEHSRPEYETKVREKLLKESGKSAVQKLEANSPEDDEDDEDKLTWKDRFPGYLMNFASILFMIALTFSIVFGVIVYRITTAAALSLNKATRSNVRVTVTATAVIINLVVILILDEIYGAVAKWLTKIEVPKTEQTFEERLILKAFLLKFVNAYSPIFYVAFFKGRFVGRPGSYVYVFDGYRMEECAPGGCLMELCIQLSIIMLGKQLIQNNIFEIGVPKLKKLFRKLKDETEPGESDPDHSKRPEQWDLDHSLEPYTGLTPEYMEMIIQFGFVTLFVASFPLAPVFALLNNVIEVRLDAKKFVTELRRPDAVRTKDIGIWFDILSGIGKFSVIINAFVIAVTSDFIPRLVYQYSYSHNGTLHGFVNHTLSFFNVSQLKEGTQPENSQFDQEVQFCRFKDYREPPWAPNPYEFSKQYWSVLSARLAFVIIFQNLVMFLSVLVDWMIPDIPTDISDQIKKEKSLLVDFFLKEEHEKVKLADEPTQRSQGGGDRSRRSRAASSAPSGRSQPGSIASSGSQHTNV
Briefly: YFP quenching assay in FRT cells expressing ANO2. Format: cell-based. The note with it: dose dependent, 100 μM ATP.

The target in assay [4] is T3, ANO1 (Homo sapiens, UniProt Q5XXA6, DEL476-501).
T3 construct: expressed in transfected cells
T3 sequence (Q5XXA6 with tags, fused parts or gaps isoform Q5XXA6-5 DEL539-564): T1 sequence (Q5XXA6 with tags, fused parts or gaps isoform Q5XXA6-5 DEL539-564)
Put plainly: Apical membrane current in ANO1 expressing FRT cells. Format: cell-based. The note with it: 100 μM ATP. How it is done:
(§1) Snapwell inserts containing ANO1, ANO2 or CFTR expressing FRT cells, ENaC expressing T-84 cells or the human primary airway epithelial cells were mounted in Ussing chambers (Physiologic Instruments, San Diego, CA). To induce transcriptional ENaC induction, the polarized T84 cells were incubated with 2 mM sodium butyrate for 2 days. To increase the functional expression of ANO1, the human airway epithelial cells were treated with IL-4 (10 ng/mL) for 2 days. For T-84 and the human primary airway epithelial cells, the apical and basolateral bath were filled with HCO3^—buffered solution containing (in mM): 120 NaCl, 5 KCl, 1 MgCl2, 1 CaCl2, 10 D-glucose, 2.5 HEPES, and 25 NaHCO3 (pH 7.4). For FRT cells, the basolateral bath was filled with the HCO3^—buffered solution and the apical bath was filled with a half-Cl^- solution. In the half-Cl^- solution 65 mM NaCl in the HCO3^—buffered solution was replaced by Na-gluconate. […] ATP was applied to the apical bath solution to induce intracellular calcium increase. […] Apical membrane currents were measured with an EVC4000 Multi-Channel V/I Clamp (World Precision Instruments, Sarasota, FL) and PowerLab 4/35 (AD Instruments, Castle Hill, Australia). Data were analyzed using Labchart Pro 7 (AD Instruments). The sampling rate was 4 Hz.

In assay [5] the target is T4, ANO2 (Mus musculus, UniProt Q8CFW1).
T4 sequence (Q8CFW1 1-1002): T2 sequence (Q8CFW1 1-1002)
Briefly: Apical membrane current in FRT-ANO2 cells. Format: cell-based. The note with it: 10 μM pretreatment. How it is done:
as §1
ANO1 belongs to anoctamin gene family which contains ten members presenting eight-pass transmembrane segments with cytosolic N- and C-terminals. ANO2 shares a high level of amino acid homology to ANO1 (~60%) and, ANO1 and ANO2 are confirmed CaCCs. However, the roles of other family members (ANO3-ANO10) remain poorly understood and controversial. […] We investigated the effect of these inhibitors on ANO2-mediated apical membrane current in FRT-ANO2 cells.

Assay [6] has as its system VRAC. Also noted: method as in PMID 24965069, PMID 25163766, PMID 26438191. The note with it: ref [26]–[28]; cited from earlier work.
Assay [7] has as its target T5, human wild-type CFTR (Homo sapiens, UniProt P13569).
T5 construct: expressed in transfected cells; host or cells: Fischer rat thyroid (FRT) cells
Briefly: Apical membrane current in FRT cells expressing CFTR. It counts as cell-based. The note with it: 10 μM, CFTR activated by 20 μM forskolin. How it is done: as §1
ANO1 was activated by either 10 μM Eact, an ANO1 activator, or 100 μM ATP.

T5 sequence (P13569 whole entry): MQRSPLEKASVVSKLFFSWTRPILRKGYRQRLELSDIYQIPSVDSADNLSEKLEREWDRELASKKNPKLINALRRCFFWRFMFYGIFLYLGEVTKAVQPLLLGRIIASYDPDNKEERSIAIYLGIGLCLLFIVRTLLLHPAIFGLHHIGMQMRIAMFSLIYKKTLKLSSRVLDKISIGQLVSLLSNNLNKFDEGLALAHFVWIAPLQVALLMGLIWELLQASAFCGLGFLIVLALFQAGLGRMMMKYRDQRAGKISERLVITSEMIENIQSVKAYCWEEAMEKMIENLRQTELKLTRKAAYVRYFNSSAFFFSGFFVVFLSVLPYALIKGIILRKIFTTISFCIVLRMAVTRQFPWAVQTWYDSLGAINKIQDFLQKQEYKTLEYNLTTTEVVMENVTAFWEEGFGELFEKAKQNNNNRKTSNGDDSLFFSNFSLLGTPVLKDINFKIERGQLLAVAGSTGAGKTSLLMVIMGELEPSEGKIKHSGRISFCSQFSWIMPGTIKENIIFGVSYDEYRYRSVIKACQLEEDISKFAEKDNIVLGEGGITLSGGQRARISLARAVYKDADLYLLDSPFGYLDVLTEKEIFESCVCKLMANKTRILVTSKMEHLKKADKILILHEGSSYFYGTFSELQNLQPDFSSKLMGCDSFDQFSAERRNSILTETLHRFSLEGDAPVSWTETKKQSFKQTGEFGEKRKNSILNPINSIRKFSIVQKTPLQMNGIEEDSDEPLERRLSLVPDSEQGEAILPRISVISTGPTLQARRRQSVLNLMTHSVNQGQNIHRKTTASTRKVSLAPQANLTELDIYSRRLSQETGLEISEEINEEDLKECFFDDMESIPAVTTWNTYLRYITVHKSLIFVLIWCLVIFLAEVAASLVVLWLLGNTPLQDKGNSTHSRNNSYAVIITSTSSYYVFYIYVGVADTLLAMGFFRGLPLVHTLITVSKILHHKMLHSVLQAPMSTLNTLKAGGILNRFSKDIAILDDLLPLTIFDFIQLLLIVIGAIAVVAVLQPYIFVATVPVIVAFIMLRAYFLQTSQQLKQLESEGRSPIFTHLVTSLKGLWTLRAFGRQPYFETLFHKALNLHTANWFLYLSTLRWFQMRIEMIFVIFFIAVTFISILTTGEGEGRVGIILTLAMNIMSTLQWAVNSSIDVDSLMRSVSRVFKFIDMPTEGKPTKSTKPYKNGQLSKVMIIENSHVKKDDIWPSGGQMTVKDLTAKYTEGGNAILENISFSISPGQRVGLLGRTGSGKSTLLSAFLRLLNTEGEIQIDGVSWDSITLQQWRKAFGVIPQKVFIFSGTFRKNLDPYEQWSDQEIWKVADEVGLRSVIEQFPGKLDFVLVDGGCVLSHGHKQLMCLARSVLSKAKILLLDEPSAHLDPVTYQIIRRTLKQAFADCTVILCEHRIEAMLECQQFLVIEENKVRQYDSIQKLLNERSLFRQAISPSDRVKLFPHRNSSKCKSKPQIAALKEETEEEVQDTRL

Take `CCOc1ccc(Br)cc1/C=N/NC(=O)COc1ccc(Cl)cc1Cl` [#1]: in assay [1], the IC50 was 0.194 µM. On the same count and under the same terms, the result for `COc1ccc(OC)c(/C=N/NC(=O)COc2ccc(Cl)cc2C)c1` [#2] reads 0.262 µM; that for `Cc1cc(Cl)ccc1OCC(=O)N/N=C/c1ccc(O)cc1` [#3], 0.301 µM.

On to `COc1ccccc1/C=N/NC(=O)COc1ccc(Br)cc1OC` [#4], for which, in assay [1], the IC50 was found to be 0.438 µM.

As to `COc1ccccc1/C=N/NC(=O)COc1ccc(I)cc1` [#5], the IC50 in assay [1] stood at 0.481 µM.

`CCc1ccc(Br)cc1/C=N/NC(=O)COc1ccc(Br)cc1` [#6]: the IC50 in assay [1] is 0.512 µM. Still for that read-out and setting: the same measure for `Cc1cc(Cl)ccc1OCC(=O)N/N=C/c1ccc(O)cc1O` [#7]: 0.572 µM; for `CCOc1cc(I)cc(/C=N/NC(=O)COc2cccc(C)c2C)c1O` [#8]: 0.894 µM; for `Cc1cc(Cl)ccc1OCC(=O)N/N=C/c1ccccc1O` [#9]: 1.02 µM. On to `COc1cc(Nc2ccc([N+](=O)[O-])cc2C(=O)O)cc2ccccc12` [MONNA, N-((4-methoxy)-2-naphthyl)-5-nitroanthranilic acid], for which the “inhibition of VRAC activity” value in assay [2] worked out at 87.9 ± 1.7%. Moreover, the “effect on ANO2 activity” value in assay [3] is “potently blocked”. Besides, in assay [4] (10 μM pretreatment), the “inhibition of ATP-induced ANO1 current” value is on record as “almost complete inhibition”. In addition, the IC50 in assay [4] (apical membrane current, 20 min pretreatment, read-out: IC50 of ATP-induced ANO1 activation) stood at 1.95 ± 1.16 µM. In addition, the “effect on ATP-induced ANO2 current” value in assay [5] is recorded as “strongly blocked”. `O=C(Nc1cc(C(F)(F)F)cc(C(F)(F)F)c1)Nc1ccc(Br)cc1-c1nnn[nH]1` [NS3728]: the “block of VRAC activity” value in assay [6] was “potently blocked”.

For CFTRinh-172, in assay [7], the “effect on CFTR channel activity” value is given as “inhibited”.

The term IC50 denotes the concentration that gives 50% inhibition.

(Values after PMC4878759 (PLoS ONE, 2016).)
